Assay results taken from patent US11147272B2, “Pyridone compounds and agricultural and horticultural fungicides comprising the same as active ingredients” (MITSUI CHEMICALS AGRO, INC., priority 2017, dated 2021).

Experiments:
Plasmopara viticola = experiment: Test Example G: Downy mildew on vine; settings: for Test G control value: 7 to 10 days after inoculation; for Test G control value class: Downy mildew on vine (Neomuscat), 2.5 ml/pot, assessed 7 to 10 days after inoculation
Description: Seeds of a test plant (grape variety: Neomuscat) were planted and cultivated until three to four first leaves appeared. In the test, the inventive compounds were dissolved into dimethyl sulfoxide-methanol mixture solution (volume ratio: 9/1), and the resultant solutions were diluted with well water to a concentration of 250 ppm to obtain the drug solutions. The drug solutions were sprayed to the test plant (2.5 ml/pot). After the drug solutions dried, a zoosporangia suspension (1-2×10^4 zoosporangia/ml) of Plasmopara viticola was inoculated to the plant by spraying. After the inoculation, the plant was kept in a mist chamber at room temperature of 20° C. for about 24 hours to promote the onset of disease. The degrees of disease development were investigated 7 to 10 days after the inoculation, and the effectiveness of the drug solutions was evaluated.
In Test Examples described above, the degrees of disease development were evaluated in increments of 0.05 from 0 (as no incidence of disease) to 3 (as the degree of disease development in an untreated plant group). Further, control values were calculated using the following equation based on the degree of disease development.
n=Degree of disease development in each treated group

Alternaia brassicicola = experiment: Test Example C: Alternaria sooty spot on cabbage; format: in vivo; settings: for Test C control value class: class of control value
Description: Seeds of a test plant (cabbage variety: Shikidori) were planted and cultivated until the cotyledons extended.
<Control Value> Control value=100{1−(n/3)}

Magnaporthe grisea = experiment: whole plant or invertebrate; format: in vivo; settings: for Test A control value class: class of control value
Puccinia recondita = experiment: Test Example E: Brown rust on wheat; format: in vivo; settings: for Test E control value class: class of control value
Phytophthora infestans = experiment: whole plant or invertebrate; format: in vivo; settings: for Test F control value class: class of control value
Botrytis cinerea = experiment: Test Example B: Gray mold on tomato; settings: for Test B control value class: class of control value
[1] = tested on: Colletotrichum orbiculare; experiment: Test Example H: Anthracnose on cucumber; settings: for Test H control value: 6 to 10 days after inoculation; for Test H control value class: Anthracnose on cucumber (Sagami Hanjiro), 2.5 ml/pot, assessed 6 to 10 days after inoculation
[2] = tested on: Blumeria graminis f. sp. hordei; experiment: Test Example D: Powdery mildew on barley; settings: for Test D control value class: class of control value
[3] = 250 ppm drug solution sprayed (2.5 ml/pot), grape Neomuscat
[4] = 250 ppm drug solution sprayed on test plant
[5] = 250 ppm drug solution sprayed (2.5 ml/pot), cucumber Sagami Hanjiro
[6] = Downy mildew on vine, 250 ppm spray
[7] = Alternaria sooty spot on cabbage, control value class
[8] = Blast on rice, control value class
[9] = Brown rust on wheat, control value class
[10] = Late blight on tomato, control value class
[11] = Gray mold on tomato, control value class
[12] = Anthracnose on cucumber, 250 ppm spray
[13] = Powdery mildew on barley, control value class
[14] = Alternaria sooty spot on cabbage

Row | SMILES | Test G control value (Plasmopara viticola; [6]) | Test C control value (Alternaia brassicicola; [7]) | Test A control value (Magnaporthe grisea; [8]) | Test E control value (Puccinia recondita; [9]) | Test F control value (Phytophthora infestans; [10]) | Test B control value (Botrytis cinerea; [11]) | Test H control value [1, 12] | Test D control value [2, 13] | Test G control value class (Plasmopara viticola; 250 ppm spray) | Test C control value class (Alternaia brassicicola; [14]) | Test A control value class (Magnaporthe grisea; Blast on rice) | Test E control value class (Puccinia recondita; Brown rust on wheat) | Test F control value class (Phytophthora infestans; Late blight on tomato) | Test B control value class (Botrytis cinerea; Gray mold on tomato) | Test H control value class ([1]; 250 ppm spray) | Test D control value class ([2]; Powdery mildew on barley) | also measured
1 | CC(C)C(C)(O)c1cc(Cl)c(=O)n(C)c1-c1c(F)cc(F)cc1F (stereo not shown) [compound 450] |  |  |  |  |  |  |  |  |  |  |  |  |  |  |  |  | Test G control value (Plasmopara viticola; [3]): H (more than 50% control value); Test C control value (Alternaia brassicicola; [4]): H (more than 50% control value); Test A control value (Magnaporthe grisea; [4]): H (more than 50% control value); Test E control value (Puccinia recondita; [4]): H (more than 50% control value); Test F control value (Phytophthora infestans; [4]): H (more than 50% control value); Test B control value (Botrytis cinerea; [4]): H (more than 50% control value); Test H control value [1, 5]: H (more than 50% control value); Test D control value [2, 4]: H (more than 50% control value)
2 | CCCCc1cc(Cl)c(=O)n(CC)c1-c1ccc(F)cc1Cl [compound 206] | H (more than 50% control value) | H (more than 50% control value) | H (more than 50% control value) | H (more than 50% control value) | H (more than 50% control value) | H (more than 50% control value) | H (more than 50% control value) | H (more than 50% control value) |  |  |  |  |  |  |  |  | 
3 | CCn1c(-c2c(F)cc(F)cc2F)c(C(C)(O)CC)cc(Cl)c1=O (stereo not shown) [compound 52] |  |  |  |  |  |  |  |  | H (more than 50% control value) | H (more than 50% control value) | H (more than 50% control value) | H (more than 50% control value) | L (50% or less control value) | H (more than 50% control value) | H (more than 50% control value) | H (more than 50% control value) | 
4 | CCn1c(-c2c(F)cc(OC)cc2F)c(C(C)(F)C(C)C)cc(Cl)c1=O (racemic) [compound 167] |  |  |  |  |  |  |  |  | H (more than 50% control value) | H (more than 50% control value) | H (more than 50% control value) | H (more than 50% control value) | H (more than 50% control value) | H (more than 50% control value) | H (more than 50% control value) | H (more than 50% control value) | 
5 | CCCc1cc(Br)c(=O)n(CC)c1-c1c(F)cccc1F [compound 429] |  |  |  |  |  |  |  |  |  |  |  |  |  |  |  |  | Test G control value (Plasmopara viticola; [3]): H (more than 50% control value); Test C control value (Alternaia brassicicola; [4]): H (more than 50% control value); Test A control value (Magnaporthe grisea; [4]): H (more than 50% control value); Test E control value (Puccinia recondita; [4]): H (more than 50% control value); Test F control value (Phytophthora infestans; [4]): L (50% or less control value); Test B control value (Botrytis cinerea; [4]): H (more than 50% control value); Test H control value [1, 5]: H (more than 50% control value); Test D control value [2, 4]: H (more than 50% control value)
6 | CCCCCc1cc(Br)c(=O)n(CC)c1-c1ccc(F)cc1Cl [compound 210] | L (50% or less control value) | H (more than 50% control value) | H (more than 50% control value) | H (more than 50% control value) | L (50% or less control value) | H (more than 50% control value) | H (more than 50% control value) | H (more than 50% control value) |  |  |  |  |  |  |  |  | 
7 | C#Cc1cc(Cl)c(=O)n(CC)c1-c1ccc(F)cc1Cl [compound 302] | L (50% or less control value) | L (50% or less control value) | H (more than 50% control value) | H (more than 50% control value) | L (50% or less control value) | H (more than 50% control value) | H (more than 50% control value) | L (50% or less control value) |  |  |  |  |  |  |  |  | 
8 | CCn1c(-c2ccc(OCCOC)cc2F)c(CC(C)C)cc(Cl)c1=O [compound 121] |  |  |  |  |  |  |  |  | L (50% or less control value) | H (more than 50% control value) | H (more than 50% control value) | H (more than 50% control value) | L (50% or less control value) | H (more than 50% control value) | H (more than 50% control value) | H (more than 50% control value) | 
9 | CCn1c(-c2c(F)cc(F)cc2F)c(C(O)C(C)C)ccc1=O (stereo not shown) [compound 453] |  |  |  |  |  |  |  |  |  |  |  |  |  |  |  |  | Test G control value (Plasmopara viticola; [3]): H (more than 50% control value); Test C control value (Alternaia brassicicola; [4]): H (more than 50% control value); Test A control value (Magnaporthe grisea; [4]): L (50% or less control value); Test E control value (Puccinia recondita; [4]): H (more than 50% control value); Test F control value (Phytophthora infestans; [4]): L (50% or less control value); Test B control value (Botrytis cinerea; [4]): H (more than 50% control value); Test H control value [1, 5]: H (more than 50% control value); Test D control value [2, 4]: H (more than 50% control value)
10 | CCn1c(-c2c(F)cc(OC)cc2F)c(C(C)(C)C)cc(Cl)c1=O [compound 74] |  |  |  |  |  |  |  |  | H (more than 50% control value) | H (more than 50% control value) | H (more than 50% control value) | H (more than 50% control value) | L (50% or less control value) | H (more than 50% control value) | H (more than 50% control value) | L (50% or less control value) | 
11 | C#CCOc1cc(F)c(-c2c(CCC)cc(Br)c(=O)n2CC)c(F)c1 [compound 464] |  |  |  |  |  |  |  |  |  |  |  |  |  |  |  |  | Test G control value (Plasmopara viticola; [3]): L (50% or less control value); Test C control value (Alternaia brassicicola; [4]): H (more than 50% control value); Test A control value (Magnaporthe grisea; [4]): L (50% or less control value); Test E control value (Puccinia recondita; [4]): H (more than 50% control value); Test F control value (Phytophthora infestans; [4]): L (50% or less control value); Test B control value (Botrytis cinerea; [4]): H (more than 50% control value); Test H control value [1, 5]: H (more than 50% control value); Test D control value [2, 4]: H (more than 50% control value)
12 | CCn1c(-c2c(F)cc(OC)cc2F)c(C(OC)C(C)(C)C)cc(Cl)c1=O (racemic) [compound 170] |  |  |  |  |  |  |  |  | H (more than 50% control value) | H (more than 50% control value) | H (more than 50% control value) | H (more than 50% control value) | H (more than 50% control value) | H (more than 50% control value) | H (more than 50% control value) | H (more than 50% control value) | 
13 | CC(C)CC1=C(c2c(F)cc(F)cc2F)N(CC(F)F)C(=O)CC1 [compound 296] | L (50% or less control value) | H (more than 50% control value) | L (50% or less control value) | H (more than 50% control value) | L (50% or less control value) | L (50% or less control value) | L (50% or less control value) | L (50% or less control value) |  |  |  |  |  |  |  |  | 
14 | CCn1c(-c2ccc(F)cc2Cl)c(C)cc(Cl)c1=O [compound 280] | L (50% or less control value) | L (50% or less control value) | L (50% or less control value) | H (more than 50% control value) | L (50% or less control value) | H (more than 50% control value) | H (more than 50% control value) | H (more than 50% control value) |  |  |  |  |  |  |  |  | 
